The source of these data is ChEMBL document CHEMBL1201862, “PubChem BioAssay data set” (2004).

One experiment has as its target Aspartyl aminopeptidase (Plasmodium falciparum 3D7, UniProt Q8I2J3). In words: Counterscreen for inhibitors of M1 and M17 aminopeptidases: QFRET-based biochemical high throughput dose response assay for inhibitors of the Plasmodium falciparum M18 Aspartyl Aminopeptidase (PFM18AAP). [Related PubChem assays: 1619 (Screening assay (M17LAP inhibitors).), 1445 (Screening assay (M1AAP inhibitors).)]. On the technique in general: A counterscreen serves to expose hits that act by an unwanted route or on another target.

A further experiment deals with T1, Aminopeptidase N (Plasmodium falciparum FcB1/Columbia, UniProt O96935).
T1 sequence (O96935 whole entry): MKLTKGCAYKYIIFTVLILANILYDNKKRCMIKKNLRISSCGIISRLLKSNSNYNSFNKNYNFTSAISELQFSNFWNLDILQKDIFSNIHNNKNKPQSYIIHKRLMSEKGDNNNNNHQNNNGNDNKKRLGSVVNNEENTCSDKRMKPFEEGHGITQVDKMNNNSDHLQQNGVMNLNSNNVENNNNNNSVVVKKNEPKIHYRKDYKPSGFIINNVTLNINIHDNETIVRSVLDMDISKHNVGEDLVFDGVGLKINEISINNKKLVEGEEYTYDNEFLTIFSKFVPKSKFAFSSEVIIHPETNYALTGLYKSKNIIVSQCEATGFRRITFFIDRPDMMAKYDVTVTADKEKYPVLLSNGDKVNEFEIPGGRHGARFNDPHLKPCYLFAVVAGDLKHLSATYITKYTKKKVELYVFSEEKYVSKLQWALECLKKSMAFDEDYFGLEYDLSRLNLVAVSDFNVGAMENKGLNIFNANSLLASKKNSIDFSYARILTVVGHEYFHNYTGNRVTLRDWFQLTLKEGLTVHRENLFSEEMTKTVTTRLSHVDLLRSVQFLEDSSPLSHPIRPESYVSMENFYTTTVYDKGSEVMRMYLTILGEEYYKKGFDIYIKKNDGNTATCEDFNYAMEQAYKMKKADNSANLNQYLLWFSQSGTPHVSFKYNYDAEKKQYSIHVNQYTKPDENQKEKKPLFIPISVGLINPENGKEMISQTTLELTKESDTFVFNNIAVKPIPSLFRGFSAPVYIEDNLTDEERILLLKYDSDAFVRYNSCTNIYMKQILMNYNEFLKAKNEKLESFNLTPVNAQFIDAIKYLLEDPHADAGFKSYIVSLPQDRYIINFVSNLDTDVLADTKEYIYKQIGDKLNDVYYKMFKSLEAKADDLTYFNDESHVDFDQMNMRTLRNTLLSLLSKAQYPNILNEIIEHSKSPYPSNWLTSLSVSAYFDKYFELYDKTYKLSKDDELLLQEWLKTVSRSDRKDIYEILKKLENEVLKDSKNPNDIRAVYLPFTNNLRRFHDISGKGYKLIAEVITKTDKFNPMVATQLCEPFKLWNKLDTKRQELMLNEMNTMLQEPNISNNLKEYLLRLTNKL
The experiment is described as follows: P. falciparum M1AAP inhibitors, biochemical, fluorogenic H-Leu-NHMec substrate, 1536-well (AID 1445). Details: species or system Plasmodium falciparum 3D7, 3D7.

In experiment [1] the target is T2, RNA-binding protein pos-1 (Caenorhabditis elegans, UniProt G5EF15).
T2 sequence (G5EF15 whole entry): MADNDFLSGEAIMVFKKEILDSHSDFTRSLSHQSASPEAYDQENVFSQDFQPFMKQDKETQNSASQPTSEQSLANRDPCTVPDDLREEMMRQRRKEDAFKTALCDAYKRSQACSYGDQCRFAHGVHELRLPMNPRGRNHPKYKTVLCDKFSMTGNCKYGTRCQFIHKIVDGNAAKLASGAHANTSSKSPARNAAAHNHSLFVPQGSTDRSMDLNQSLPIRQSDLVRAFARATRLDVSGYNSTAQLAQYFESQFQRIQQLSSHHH
In words: inhibitors of POS-1/mex-3 RNA binding, dose response, biochemical, fluorescence polarization (AID 1964).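 Also: purified POS-1 fused to maltose binding protein made in E. coli; potency of compounds blocking POS-1 binding to fluorescent RNA.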 In general terms: Polarisation of emitted light reports the rotation of a fluorescent probe.

Experiment [2] deals with T3, Zinc finger protein mex-5 (Caenorhabditis elegans, UniProt Q9XUB2).
T3 sequence (Q9XUB2 whole entry): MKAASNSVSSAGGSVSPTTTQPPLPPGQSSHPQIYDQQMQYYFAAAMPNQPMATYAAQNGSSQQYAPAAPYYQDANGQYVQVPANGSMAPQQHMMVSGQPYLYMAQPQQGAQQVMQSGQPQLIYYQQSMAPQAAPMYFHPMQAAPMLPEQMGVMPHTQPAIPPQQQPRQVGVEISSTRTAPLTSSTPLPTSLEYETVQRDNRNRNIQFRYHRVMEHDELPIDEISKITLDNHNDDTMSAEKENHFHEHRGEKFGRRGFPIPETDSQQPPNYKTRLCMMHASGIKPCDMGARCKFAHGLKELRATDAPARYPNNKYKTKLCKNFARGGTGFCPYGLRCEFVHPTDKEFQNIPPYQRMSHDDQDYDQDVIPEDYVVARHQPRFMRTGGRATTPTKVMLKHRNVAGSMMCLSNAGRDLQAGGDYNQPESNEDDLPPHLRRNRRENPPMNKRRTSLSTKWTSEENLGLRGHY
The experiment is described as follows: MEX-5/TCR-2 RNA interaction inhibitors, dose response, biochemical, C. elegans, fluorescence polarization (AID 1960).

Another experiment addresses Procathepsin L (Homo sapiens, UniProt P07711). The experiment is described as follows: cathepsin L inhibitors, dose response, counter-screen for M1/M17 aminopeptidase inhibitor project, biochemical, QFRET, 1536-well (AID 2214).
The target of experiment [3] is Intestinal-type alkaline phosphatase (Mus musculus, UniProt P24822). In words: PubChem AID 488785. Type of experiment: functional.
Sequence of Intestinal-type alkaline phosphatase (Mus musculus, UniProt P24822) (P24822 whole entry): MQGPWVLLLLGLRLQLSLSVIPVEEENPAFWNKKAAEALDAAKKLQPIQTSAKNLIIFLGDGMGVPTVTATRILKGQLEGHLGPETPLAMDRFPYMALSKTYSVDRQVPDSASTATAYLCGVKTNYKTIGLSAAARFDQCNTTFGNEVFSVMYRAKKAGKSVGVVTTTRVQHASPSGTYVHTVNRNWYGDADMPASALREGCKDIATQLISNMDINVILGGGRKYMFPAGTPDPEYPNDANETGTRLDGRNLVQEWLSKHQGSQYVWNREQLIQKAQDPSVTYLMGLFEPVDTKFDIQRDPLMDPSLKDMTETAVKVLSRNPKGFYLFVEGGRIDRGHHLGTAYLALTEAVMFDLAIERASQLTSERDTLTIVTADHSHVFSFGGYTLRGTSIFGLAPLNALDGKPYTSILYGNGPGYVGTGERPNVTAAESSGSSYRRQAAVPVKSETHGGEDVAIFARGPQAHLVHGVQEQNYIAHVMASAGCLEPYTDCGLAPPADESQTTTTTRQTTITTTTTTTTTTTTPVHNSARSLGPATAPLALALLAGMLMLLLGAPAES
The target in experiment [4] is T4, Alkaline phosphatase, tissue-nonspecific isozyme (Homo sapiens, UniProt P05186).
T4 sequence (P05186 whole entry): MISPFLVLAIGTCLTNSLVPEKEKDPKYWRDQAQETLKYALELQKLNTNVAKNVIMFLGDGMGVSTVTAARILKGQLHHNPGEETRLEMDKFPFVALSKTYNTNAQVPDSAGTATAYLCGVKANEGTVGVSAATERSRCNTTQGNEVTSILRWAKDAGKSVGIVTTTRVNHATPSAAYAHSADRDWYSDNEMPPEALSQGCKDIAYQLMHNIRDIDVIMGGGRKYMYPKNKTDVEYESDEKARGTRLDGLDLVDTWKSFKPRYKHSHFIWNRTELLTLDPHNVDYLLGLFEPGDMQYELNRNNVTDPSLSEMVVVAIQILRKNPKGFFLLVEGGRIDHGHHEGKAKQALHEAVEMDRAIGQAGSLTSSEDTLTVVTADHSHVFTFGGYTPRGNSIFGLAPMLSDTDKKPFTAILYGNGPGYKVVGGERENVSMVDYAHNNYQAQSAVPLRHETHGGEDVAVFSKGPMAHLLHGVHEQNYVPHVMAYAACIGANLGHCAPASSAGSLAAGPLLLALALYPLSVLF
The experiment is described as follows: TNAP enzyme inhibition by screening hits, dose response, selectivity assay for mouse IAP inhibitor project, biochemical, human TNAP, uHTS hits (AID 488906). The class given is functional.

The target in experiment [5] is Intestinal-type alkaline phosphatase (Homo sapiens, UniProt P09923). The experiment is described as follows: inhibition of human intestinal alkaline phosphatase – biochemical, dose response (AID 488876). Type of experiment: functional.
Sequence of Intestinal-type alkaline phosphatase (Homo sapiens, UniProt P09923) (P09923 whole entry): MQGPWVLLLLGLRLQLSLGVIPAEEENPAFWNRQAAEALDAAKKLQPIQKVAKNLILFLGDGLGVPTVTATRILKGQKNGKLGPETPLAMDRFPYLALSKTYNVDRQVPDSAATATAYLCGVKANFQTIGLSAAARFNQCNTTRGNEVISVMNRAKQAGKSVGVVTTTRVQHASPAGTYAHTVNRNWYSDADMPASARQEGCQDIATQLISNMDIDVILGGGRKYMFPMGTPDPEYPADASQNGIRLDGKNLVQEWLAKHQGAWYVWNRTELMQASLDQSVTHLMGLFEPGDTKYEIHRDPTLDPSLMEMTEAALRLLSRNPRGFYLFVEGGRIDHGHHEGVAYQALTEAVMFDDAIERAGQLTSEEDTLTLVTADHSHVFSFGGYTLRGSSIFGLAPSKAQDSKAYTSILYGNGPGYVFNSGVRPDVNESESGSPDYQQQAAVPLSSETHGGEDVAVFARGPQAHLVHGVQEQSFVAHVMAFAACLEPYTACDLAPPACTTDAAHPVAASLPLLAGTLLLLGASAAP
The target in experiment [6] is T5, Polyadenylate-binding protein 1 (Homo sapiens, UniProt P11940). In words: PABP1 MLLE–PAM2 interaction inhibitors, dose response, miRNA deadenylation inhibitor project, biochemical, fluorescence polarization, Cy5-PAM2 peptide, secondary (AID 602260). The class given is functional. The following applies: read-out: IC50_Mean.
T5 sequence (P11940 whole entry): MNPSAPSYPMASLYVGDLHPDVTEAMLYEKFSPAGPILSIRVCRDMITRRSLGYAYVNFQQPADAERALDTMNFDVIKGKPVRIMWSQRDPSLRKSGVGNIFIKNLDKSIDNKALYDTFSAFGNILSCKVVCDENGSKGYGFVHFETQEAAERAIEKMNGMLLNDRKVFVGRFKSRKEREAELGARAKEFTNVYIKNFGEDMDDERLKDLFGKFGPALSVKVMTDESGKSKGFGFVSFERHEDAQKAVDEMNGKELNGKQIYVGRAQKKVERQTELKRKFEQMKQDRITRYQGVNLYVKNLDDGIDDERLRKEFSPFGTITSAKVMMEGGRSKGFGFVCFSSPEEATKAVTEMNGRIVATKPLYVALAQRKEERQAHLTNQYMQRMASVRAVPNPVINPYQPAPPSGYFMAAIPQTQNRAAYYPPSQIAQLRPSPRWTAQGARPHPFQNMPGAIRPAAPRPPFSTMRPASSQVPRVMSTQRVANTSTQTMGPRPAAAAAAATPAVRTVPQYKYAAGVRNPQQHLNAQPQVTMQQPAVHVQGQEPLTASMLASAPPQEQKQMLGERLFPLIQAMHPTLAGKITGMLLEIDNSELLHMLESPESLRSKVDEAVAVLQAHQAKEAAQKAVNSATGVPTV
Experiment [7] deals with T5, Polyadenylate-binding protein 1. The experiment is described as follows: PABP1 MLLE–PAM2 binding inhibitor potency, dose response, biochemical, fluorescence polarization, FITC-PAM2 peptide (AID 602259). The class given is functional. The following applies: read-out: IC50_Mean.
The target of experiment [8] is Sphingosine 1-phosphate receptor 1 (Homo sapiens, UniProt P21453). The experiment is described as follows: Fluorescence-based counterscreen assay for S1P4 agonists: Cell-based dose response high throughput screening assay to identify agonists of the Sphingosine 1-Phosphate Receptor 1 (S1P1). [Related pubchem assays (depositor defined):AID1509, AID1523, AID1801, AID463107, AID463118, AID463119, AID463122, AID463123, AID463129, AID463225, AID504400, AID504460]. Type of experiment: functional.
Sequence of Sphingosine 1-phosphate receptor 1 (P21453 whole entry): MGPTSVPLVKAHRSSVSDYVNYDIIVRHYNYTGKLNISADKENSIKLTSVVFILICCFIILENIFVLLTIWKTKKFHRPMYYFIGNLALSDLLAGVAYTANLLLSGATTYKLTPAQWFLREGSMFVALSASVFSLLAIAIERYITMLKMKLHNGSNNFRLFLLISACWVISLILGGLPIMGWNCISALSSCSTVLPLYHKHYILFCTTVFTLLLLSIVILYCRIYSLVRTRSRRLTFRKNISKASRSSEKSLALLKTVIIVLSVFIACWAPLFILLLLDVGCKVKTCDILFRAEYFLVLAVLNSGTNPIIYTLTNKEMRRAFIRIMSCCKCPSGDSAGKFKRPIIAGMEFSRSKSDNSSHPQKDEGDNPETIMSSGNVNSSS

The target of experiment [9] is Luciferin 4-monooxygenase (Photinus pyralis, UniProt P08659). The experiment is described as follows: Counter Screen for Luciferase-based Assay Positives. [Related pubchem assays: 620, 618, 411 ].
Sequence of Luciferin 4-monooxygenase (P08659 whole entry): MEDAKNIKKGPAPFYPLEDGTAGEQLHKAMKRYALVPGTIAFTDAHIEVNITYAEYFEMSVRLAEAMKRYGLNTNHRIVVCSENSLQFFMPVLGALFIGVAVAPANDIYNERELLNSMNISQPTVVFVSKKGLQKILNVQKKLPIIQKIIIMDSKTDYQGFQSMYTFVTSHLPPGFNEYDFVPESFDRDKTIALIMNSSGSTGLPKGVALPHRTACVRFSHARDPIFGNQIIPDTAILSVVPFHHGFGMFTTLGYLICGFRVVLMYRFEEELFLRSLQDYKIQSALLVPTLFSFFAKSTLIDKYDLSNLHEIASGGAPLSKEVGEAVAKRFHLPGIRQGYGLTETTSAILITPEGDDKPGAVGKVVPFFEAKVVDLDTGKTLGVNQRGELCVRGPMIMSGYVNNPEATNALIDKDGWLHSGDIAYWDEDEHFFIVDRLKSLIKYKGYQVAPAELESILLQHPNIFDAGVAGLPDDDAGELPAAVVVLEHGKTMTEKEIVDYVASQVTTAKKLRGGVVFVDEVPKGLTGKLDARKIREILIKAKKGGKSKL
Experiment [10] deals with Sphingosine 1-phosphate receptor 4 (Homo sapiens, UniProt O95977). The experiment is described as follows: Fluorescence dose response cell-based high throughput screening assay for agonists of the Sphingosine 1-Phosphate Receptor 4 (S1P4). [Related pubchem assays: 1509 (Primary screen.), 1523 (Confirmation screen in triplicates.)]. The class given is functional.
Sequence of Sphingosine 1-phosphate receptor 4 (O95977 whole entry): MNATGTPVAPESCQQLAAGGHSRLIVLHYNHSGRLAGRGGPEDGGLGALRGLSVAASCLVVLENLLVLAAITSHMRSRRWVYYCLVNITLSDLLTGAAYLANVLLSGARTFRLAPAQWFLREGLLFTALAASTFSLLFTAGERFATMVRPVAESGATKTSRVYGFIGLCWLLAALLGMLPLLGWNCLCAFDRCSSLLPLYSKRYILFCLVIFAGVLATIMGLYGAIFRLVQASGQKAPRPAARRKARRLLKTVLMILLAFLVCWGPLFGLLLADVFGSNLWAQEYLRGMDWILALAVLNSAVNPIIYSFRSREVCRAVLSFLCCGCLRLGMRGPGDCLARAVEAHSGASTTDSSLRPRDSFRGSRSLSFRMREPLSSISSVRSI
Experiment [11] in a line: growth suppression of PTEN-null colon cells, dose response, cell-based, HCT116 PTEN knockout (AID 1047).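 Also: HCT116 colon tumor cells with PTEN knocked out; cells exposed to compound for 60 hours before readout; potency for loss of cell viability measured by luminescence.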 Type of experiment: functional.
The subject of another experiment is HT-1080. The experiment is described as follows: cytotoxicity in HT1080 fibrosarcoma cells, cell-based, fluorescence readout (AID 620). Conditions: Homo sapiens. The class given is functional.
A short description of experiment [12]: growth suppression of beta-catenin-knockout colon cells, dose response, cell-based, HCT116, human colon tumor (AID 1045).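 Also: HCT116 colon tumor cells with beta catenin knocked out; cells exposed to compound for 60 hours.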 The class given is functional.
Experiment [13] has as its target Sphingosine 1-phosphate receptor 2 (Homo sapiens, UniProt O95136). In words: Dose Response Cell Based Assay for Agonists of the S1P2 Receptor. [Related pubchem assays: 729, 736, 843 ]. The class given is functional.
The target in experiment [14] is T6, Tyrosine-protein phosphatase non-receptor type 7 (Homo sapiens, UniProt P35236).
T6 sequence (P35236 whole entry): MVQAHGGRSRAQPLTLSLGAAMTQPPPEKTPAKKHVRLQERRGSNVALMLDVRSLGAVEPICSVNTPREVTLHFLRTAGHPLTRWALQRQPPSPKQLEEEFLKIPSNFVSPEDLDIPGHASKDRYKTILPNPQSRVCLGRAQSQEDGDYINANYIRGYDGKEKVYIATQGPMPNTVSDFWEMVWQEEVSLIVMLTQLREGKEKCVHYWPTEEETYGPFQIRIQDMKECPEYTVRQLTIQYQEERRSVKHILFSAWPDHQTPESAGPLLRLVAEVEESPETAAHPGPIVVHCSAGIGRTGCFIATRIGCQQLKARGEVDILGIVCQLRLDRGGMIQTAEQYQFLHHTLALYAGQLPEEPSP
The class given is functional.

Experiment [15] deals with T7, Tyrosine-protein phosphatase non-receptor type 22 (Homo sapiens, UniProt Q9Y2R2).
T7 sequence (Q9Y2R2 whole entry): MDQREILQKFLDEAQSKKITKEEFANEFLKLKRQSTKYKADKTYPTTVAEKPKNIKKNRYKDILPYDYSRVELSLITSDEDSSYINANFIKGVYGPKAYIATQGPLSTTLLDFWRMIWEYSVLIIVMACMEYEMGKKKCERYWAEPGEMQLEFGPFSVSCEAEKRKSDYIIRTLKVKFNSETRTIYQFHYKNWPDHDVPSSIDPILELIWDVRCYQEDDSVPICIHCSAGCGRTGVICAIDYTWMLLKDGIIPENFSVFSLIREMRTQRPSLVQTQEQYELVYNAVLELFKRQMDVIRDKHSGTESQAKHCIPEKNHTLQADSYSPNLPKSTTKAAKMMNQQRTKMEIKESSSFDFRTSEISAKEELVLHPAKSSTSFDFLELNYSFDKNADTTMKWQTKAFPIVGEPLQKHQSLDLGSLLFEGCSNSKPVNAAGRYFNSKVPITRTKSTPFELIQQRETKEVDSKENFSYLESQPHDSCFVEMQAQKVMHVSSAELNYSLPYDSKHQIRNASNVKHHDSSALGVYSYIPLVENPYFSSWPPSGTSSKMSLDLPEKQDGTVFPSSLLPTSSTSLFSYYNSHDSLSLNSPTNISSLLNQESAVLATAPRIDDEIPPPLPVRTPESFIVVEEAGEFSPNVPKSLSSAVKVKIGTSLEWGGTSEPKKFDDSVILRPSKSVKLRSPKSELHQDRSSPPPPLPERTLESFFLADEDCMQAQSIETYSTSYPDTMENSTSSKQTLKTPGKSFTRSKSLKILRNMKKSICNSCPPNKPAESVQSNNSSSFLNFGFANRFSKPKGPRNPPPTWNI
Type of experiment: functional.

The target in experiment [16] is T7, Tyrosine-protein phosphatase non-receptor type 22. The class given is functional. This is another data set of the same source.

Active and inactive are the calls of the source.

Sequence of Aspartyl aminopeptidase (Q8I2J3 whole entry): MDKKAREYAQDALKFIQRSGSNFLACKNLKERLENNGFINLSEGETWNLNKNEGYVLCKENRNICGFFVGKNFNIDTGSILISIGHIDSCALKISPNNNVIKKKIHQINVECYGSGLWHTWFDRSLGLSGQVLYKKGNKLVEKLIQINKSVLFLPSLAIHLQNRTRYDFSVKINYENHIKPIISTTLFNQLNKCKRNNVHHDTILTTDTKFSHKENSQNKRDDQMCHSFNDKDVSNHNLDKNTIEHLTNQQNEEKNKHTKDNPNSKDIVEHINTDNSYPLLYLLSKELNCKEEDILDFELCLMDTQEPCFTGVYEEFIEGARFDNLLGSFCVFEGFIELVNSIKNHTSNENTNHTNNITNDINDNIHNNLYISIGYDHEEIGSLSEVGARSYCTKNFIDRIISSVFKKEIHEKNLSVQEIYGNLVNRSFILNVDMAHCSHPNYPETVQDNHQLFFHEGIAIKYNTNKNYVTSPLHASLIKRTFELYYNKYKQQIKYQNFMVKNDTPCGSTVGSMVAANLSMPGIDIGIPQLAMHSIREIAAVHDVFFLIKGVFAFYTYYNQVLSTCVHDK
Sequence of Procathepsin L (P07711 whole entry): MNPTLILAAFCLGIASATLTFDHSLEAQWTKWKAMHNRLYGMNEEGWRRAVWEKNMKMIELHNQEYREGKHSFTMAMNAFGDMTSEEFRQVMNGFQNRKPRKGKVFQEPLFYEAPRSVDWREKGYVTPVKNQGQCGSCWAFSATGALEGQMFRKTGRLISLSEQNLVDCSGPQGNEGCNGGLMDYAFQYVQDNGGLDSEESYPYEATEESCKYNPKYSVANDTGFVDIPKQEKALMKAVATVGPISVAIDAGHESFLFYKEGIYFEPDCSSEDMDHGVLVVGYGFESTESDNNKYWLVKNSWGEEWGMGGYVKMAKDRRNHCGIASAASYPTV
Sequence of Sphingosine 1-phosphate receptor 2 (O95136 whole entry): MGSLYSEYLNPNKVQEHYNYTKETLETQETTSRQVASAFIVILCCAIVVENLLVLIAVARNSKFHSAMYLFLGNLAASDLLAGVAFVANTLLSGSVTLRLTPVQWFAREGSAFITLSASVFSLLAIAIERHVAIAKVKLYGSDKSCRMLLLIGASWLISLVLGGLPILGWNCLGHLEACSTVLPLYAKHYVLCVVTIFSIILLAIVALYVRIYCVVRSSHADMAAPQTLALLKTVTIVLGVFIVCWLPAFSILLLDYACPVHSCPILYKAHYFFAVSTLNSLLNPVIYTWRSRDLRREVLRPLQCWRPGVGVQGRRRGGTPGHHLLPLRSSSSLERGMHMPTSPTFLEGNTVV

Take `CCN1C(=O)/C(=C2\SC(=S)N(NC(=O)c3ccccc3O)C2=O)c2ccccc21`: the IC50 against Aspartyl aminopeptidase was 25 µM (not active); on Aminopeptidase N it was 9.43 µM (active); against Procathepsin L it was > 59.6 µM (not active); in experiment [3], 53.5 µM (active); in [4], > 100 µM (inactive); in [5], > 100 µM (inactive). The IC50 in [6] and in experiment [7] was > 66 µM (inactive) each time. Moreover, the 50% effective concentration (EC50) (in general, the concentration that produces a half-maximal response) in [1] is 7.47 µM (active); in experiment [2], 5.31 µM (active).
Consider `CN(C)CCCNS(=O)(=O)c1ccc(N2CCC(c3ccc(Cl)cc3)=N2)cc1`, for which the EC50 is > 0.614 µM (active) in [8]; 1.04 µM (active) in [9]; > 0.614 µM (active) in [10]; 4.53 µM (active) in experiment [11]; 14.4 µM (active) in the experiment with HT-1080; 4.67 µM (active) in [12]. In [13], the 50% effective concentration (EC50) is 0.338 µM (active).
Turning to `CSCC[C@H](NC(=O)Nc1cccc(C(F)(F)F)c1)C(=O)O`, the IC50 in experiment [14], in [15] and in experiment [16] was > 79.4 µM (inactive) each time.
